Assay results from patent US9986723B2, “Screen and use of therapeutics for pancreatic ductal adenocarcinoma” (The Board of Regents of the University of Texas System, priority 2014, dated 2018).

Key:
[1] = test system: primary PDA cells; assay: Rgs16::GFP PDA primary cell culture, live cell counts after 24 hr drug treatment; format: cell-based, mouse; conditions: 24 hr, gemcitabine 10 μM, BGB324 or warfarin 1 or 10 μM
Description: Cell proliferation counts of primary PDA culture after 24 hr treatment with (FIG. 20A) gemcitabine (purple round); (FIG. 20B) BGB324 (green round); (FIG. 20C) warfarin (blue round); or (FIG. 20D) BGB324 with warfarin (green or blue round) at the indicated concentrations. PDA primary cells were plated at equal density (black open circle) at the start. Next day, cells were treated with drugs (D, red font) for 24 hr (red line). Approximate cell number at the start of drug treatment was obtained from another plate with equal density (red open circle). At the end of treatment, cells in each group were counted and subsequent passages started with cells plated at equal density (grey asterisk). Drug treated groups were allowed to grow without drug selection thereafter. Control cells (Ctrl) on separate plates were grown without drug and counted at the end of each passage (black open circle). PDA live cell numbers were obtained via counts using a hemocytometer after 2% Trypan blue staining to distinguish between living and dead cells under an inverted microscope with 10× objective. Statistical significances are based on comparison of drug-treated cell counts to Ctrl. […] Statistical analyses were obtained by comparing counts of drug-treated cells to Ctrl via unpaired and two-tailed Student's t-test. *, p<0.05; **, p<0.01; ***, p<0.001; ****, p<0.0001. Asterisks match the color of the comparison group.
Rgs16::GFP PDA primary cell culture. Primary Rgs16::GFP PDA cells were harvested from 6-week-old KIC mice. Cells were grown in 25 mM Glucose DMEM (HyClone) with 10% FBS (Serum Source International), penicillin and streptomycin (Life Technologies) on rat tail collagen typel (BD Biosciences) coated plates (0.5 μg/cm^2) in a humidified incubator at 37° C. and 5% CO2. Cells reaching confluency were washed twice with PBS (HyClone) and lifted with 0.05% Trypsin-EDTA (HyClone) treatment up to 10 min in the incubator. For drug tests in FIGS. 20A-D, primary PDA cells were incubated with gemcitabine (10 μM dissolved in PBS), warfarin (1 μM or 10 μM dissolved in water), BGB324 (1 μM or 10 μM dissolved in DMSO) or warfarin and BGB324 together for 24 hrs in 37° C. incubator. PDA live cell numbers were obtained via counts using a hemocytometer following 2% trypan blue staining to distinguish dead cells under an inverted microscope.

[2] = test system: Pan02 tumors; assay: Low dose warfarin in drinking water, syngenic orthotopic model; format: in vivo, mouse; conditions: warfarin 0.5 mg/L drinking water
Description: (FIG. 23A) Primary tumor burden after therapy with warfarin. Therapy was initiated when implanted tumors were visible by ultrasound (˜10 mm^3) and consisted of control (normal drinking water) or warfarin, administered in the drinking water at 0.5 mg/L (immunocompetent mice: Pan02 (n=4, control; 3, warfarin), KIC (n=10, control; 8, warfarin)) or 1 mg/L (Panc-1 (n=10, control; 8, warfarin), AsPC-1 (n=8, control; 6, warfarin), Capan-1 (n=10, control; 7, warfarin)) and continued for 2-4 weeks until control mice were moribund. Therapy in KIC mice was initiated at 3 weeks of age and continued for 4 weeks. (FIG. 23B) Metastases were determined grossly upon sacrifice and confirmed by histological evaluation of the liver. […] Incidence of metastasis is also indicated. […] Tumor volume determined by serial ultrasound. […] Therapy with mAb 10C9 (250 μg 2×/week) was initiated when tumors were established as above and persisted for 4 weeks. […] Error bars indicate s.e.m.
Animal studies. […] Mice with established tumors, as determined by sonography were randomized to receive normal drinking water or water containing 1 mg/L (˜3.0 μM) warfarin for experiments in immunocompromised mice and 0.5 mg/L (˜1.5 μM) in experiments in immunocompetent animals with or without gemcitabine 25 mg/kg twice weekly depending on experimental design.

[3] = test system: Mia PaCa-2 cells; assay: Mesenchymal/epithelial markers by ICC; format: cell-based, human; conditions: warfarin, in vitro
Description: FIGS. 31A-B. Maintenance of mesenchymal phenotype is Axl dependent and inhibited by warfarin. (FIGS. 31A-B) Mia PaCa-2 cells were grown in 1% serum containing media the absence (Control) or presence of warfarin (2 μM) overnight. Cells were assessed for expression of phosphorylated Axl, nuclear Zeb1 (FIG. 31A) and vimentin and E-cadherin (FIG. 31B) by ICC. […] (FIG. 31B) Representative images of Vimentin and E-Cadherin expression are shown, total magnification 400×. Images were analyzed using Elements software. Welch's t-test*, p<0.05; **, p<0.01 vs control.
Signaling and functional assays. Cells were grown to confluence in […] or 4 well chamber slides and treated overnight with low serum (1-2%) media+/−warfarin (2 μM) or 10C9 (1.1 μM, 168 μg/ml) overnight. Cells were subsequently analyzed by western blot or immunocytochemsitry (ICC).

[4] = test system: Panc-1 cells; assay: In vitro EMT assay (TGF-β and collagen); format: cell-based, human; conditions: warfarin 2 μM
Description: FIGS. 26A-C. […] (FIG. 26A) the expression level of pAxl, Zeb1 and nuclear β-catenin in Panc1 cells in vitro was measured by immunofluorescence under normal culture conditions or after growth on collagen matrix and treatment with TGF-β (20 ng/ml) to induce epithelial to mesenchymal transition, with or without warfarin (2 μM). p-Axl was normalized to total Axl area. (FIG. 26B) Panc1 cells were treated with either SFM, recombinant Gas 6 (100 ng/ml) or Gas6 following pretreatment with 10C9 (mAb anti-Axl). Transition to a mesenchymal phenotype was characterized by changes in vimentin and nuclear Zeb1 expression determined by immunofluoresence. […] (FIG. 26C) Paraffin embedded sections of Panc-1 tumors were analyzed by immunofluorescence for markers of EMT.

## CC(=O)CC(c1ccccc1)c1c(O)c2ccccc2oc1=O (racemic) [Warfarin]
[1]
  effect on cell viability and proliferation: little or no effect on cell growth
[1]; listed as warfarin
  effect on cell viability and proliferation: no effect
[2]
  primary tumor growth: reduced primary tumor growth
[3]
  expression of the epithelial marker E-cadherin: elevating
  pAxl levels, surface Axl expression, Zeb1 and vimentin: reduced
[4]; TGF-β 20 ng/ml, collagen
  Zeb1 and nuclear β-catenin levels: significantly reduced
[4]
  TGFβ and collagen I enhanced Axl expression and activation: blocked
